Assays:
ZEAMX = assay: Pre-emergence herbicidal effect and crop plant compatibility, greenhouse pot test; format: in vivo, Zea mays; conditions: 80 g/ha, scored visually after about 3 weeks vs untreated controls
How it was run: (§1)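 Greenhouse pots with freshly sown seeds receive a soil-surface treatment of 20 to 320 g/ha compound, formulated as WP or EC with 0.5% additive at 600 l/ha. Activity is expressed as visually estimated percent effect versus untreated plants after about 3 weeks, where 100% means the plants died.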

ALOMY [1] = assay: Pre-emergence herbicidal effect, greenhouse pot test; format: in vivo, Alopecurus myosuroides; conditions: scored visually after about 3 weeks vs untreated controls
Excerpt: (§2) Seeds of monocotyledonous and dicotyledonous weed plants and crop plants are placed in plastic or organic planting pots and covered with soil. The compounds of the invention, formulated in the form of wettable powders (WP) or as emulsion concentrates (EC), are then applied to the surface of the covering soil as aqueous suspension or emulsion with addition of 0.5% additive at a water application rate equivalent to 600 l/ha. After the treatment, the pots are placed in a greenhouse and kept under good growth conditions for the trial plants. After about 3 weeks, the effect of the preparations is scored visually in comparison with untreated controls as percentages. For example, 100% activity=the plants have died, 0% activity=like control plants.
(§3) Tables 1a to 19c below show the effects/crop compatibilities of selected compounds of the general formula (I) on various harmful plants at an application rate corresponding to 20 to 320 g/ha, which were obtained by the trial procedure specified above.
(§4) • ALOMY: Alopecurus myosuroides SETVI: Setaria viridis • AVEFA: Avena fatua POLCO: Fallopia convolvulus • AMARE: Amaranthus retroflexus ECHCG: Echinochloa crus-galli • LOLRJ: Lolium rigidum STEME: Stellaria media • VERPE: Veronica persica MATIN: Tripleurospermum inodorum • DIGSA: Digitaria sanguinalis ABUTH: Abutylon threophrasti • TRZAS: Triticum aestivum VIOTR: Viola tricolor • BRSNW: Brassica napus ZEAMX: Zea mays • PHBPU: Ipomoea purpurea GLXMA: Glycine max • ORYSA: Oryza sativa HORMU: Hordeum murinum

AMARE [2] = assay: as above; format: in vivo, Amaranthus retroflexus; conditions: scored visually after about 3 weeks vs untreated controls; for pest or weed control at 320 g/ha: Amaranthus retroflexus, 504 h, read-out: Pre-emergence effect at 320 g/ha against AMARE in %
How it was run: as §1

ECHCG [3] = assay: as above; format: in vivo, Echinochloa crus-galli; conditions: scored visually after about 3 weeks vs untreated controls; for pest or weed control at 320 g/ha: Echinochloa crus-galli, 504 h, read-out: Pre-emergence effect at 320 g/ha against ECHCG in %
Excerpt: as §2, §3, §4

LOLRI [4] = assay: as above; format: in vivo, Lolium rigidum; conditions: scored visually after about 3 weeks vs untreated controls
Excerpt: as §2, §3, §4

MATIN [5] = assay: as above; format: in vivo, Tripleurospermum inodorum; conditions: scored visually after about 3 weeks vs untreated controls; for pest or weed control at 320 g/ha: Tripleurospermum inodorum, 504 h, read-out: Pre-emergence effect at 320 g/ha against MATIN in %
Excerpt: as §2, §3, §4

POLCO = assay: as above; format: in vivo, Fallopia convolvulus; conditions: scored visually after about 3 weeks vs untreated controls; for pest or weed control at 320 g/ha: Fallopia convolvulus, 504 h, read-out: Pre-emergence effect at 320 g/ha against POLCO in %
Excerpt: as §2, §3, §4

SETVI [6] = assay: as above; format: in vivo, Setaria viridis; conditions: scored visually after about 3 weeks vs untreated controls; for pest or weed control at 320 g/ha: Setaria viridis, 504 h, read-out: Pre-emergence effect at 320 g/ha against SETVI in %
How it was run: as §1

ABUTH = assay: Post-emergence herbicidal effect, greenhouse pot test; format: in vivo, Abutilon theophrasti; conditions: Abutilon theophrasti, 504 h, visual rating about 3 weeks after treatment, read-out: Post-emergence effect against ABUTH
How it was run: (§5)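 Greenhouse pot plants in sandy loam receive a one-leaf-stage spray at 20 to 320 g/ha. Activity is assessed visually around 3 weeks afterwards on a 0–100% scale, where 100% means the plants have died.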

ALOMY [7] = assay: as above; format: in vivo, Alopecurus myosuroides; conditions: Alopecurus myosuroides, 504 h, visual rating about 3 weeks after treatment, read-out: Post-emergence effect against ALOMY
How it was run: as §5

AMARE [8] = assay: as above; format: in vivo, Amaranthus retroflexus; conditions: Amaranthus retroflexus, 504 h, visual rating about 3 weeks after treatment, read-out: Post-emergence effect against AMARE
How it was run: as §5

AVEFA = assay: as above; format: in vivo, Avena fatua; conditions: Avena fatua, 504 h, visual rating about 3 weeks after treatment, read-out: Post-emergence effect against AVEFA
How it was run: as §5

ECHCG [9] = assay: as above; format: in vivo, Echinochloa crus-galli; conditions: Echinochloa crus-galli, 504 h, read-out: Post-emergence effect against ECHCG in %
How it was run: as §5

LOLRI [10] = assay: as above; format: in vivo, Lolium rigidum; conditions: Lolium rigidum, 504 h, read-out: Post-emergence effect against LOLRI in %
How it was run: as §5

MATIN [11] = assay: as above; format: in vivo, Tripleurospermum inodorum; conditions: Tripleurospermum inodorum, 504 h, read-out: Post-emergence effect against MATIN in %
How it was run: as §5

PHBPU = assay: as above; format: in vivo, Ipomoea purpurea; conditions: Ipomoea purpurea, 504 h, read-out: Post-emergence effect against PHBPU in %
How it was run: as §5

SETVI [12] = assay: as above; format: in vivo, Setaria viridis; conditions: Setaria viridis, 504 h, read-out: Post-emergence effect against SETVI in %
How it was run: as §5

VERPE = assay: as above; format: in vivo, Veronica persica; conditions: Veronica persica, 504 h, read-out: Post-emergence effect against VERPE in %
How it was run: as §5

VIOTR = assay: as above; format: in vivo, Viola tricolor; conditions: Viola tricolor, 504 h, read-out: Post-emergence effect against VIOTR in %
How it was run: as §5

Structure (SMILES) | Pre-emergence effect at 80 g/ha against ZEAMX in % (ZEAMX) | Pre-emergence effect at 320 g/ha against ALOMY in % (ALOMY [1]) | pest or weed control at 320 g/ha (AMARE [2]) | pest or weed control at 320 g/ha (ECHCG [3]) | Pre-emergence effect at 320 g/ha against LOLRI in % (LOLRI [4]) | pest or weed control at 320 g/ha (MATIN [5]) | pest or weed control at 320 g/ha (POLCO) | pest or weed control at 320 g/ha (SETVI [6]) | pest or weed control at 80 g/ha (ALOMY [7]) | pest or weed control at 320 g/ha (ALOMY [7]) | pest or weed control at 320 g/ha (AMARE [8]) | pest or weed control at 320 g/ha (AVEFA) | pest or weed control at 320 g/ha (ECHCG [9]) | pest or weed control at 320 g/ha (LOLRI [10]) | pest or weed control at 320 g/ha (MATIN [11]) | pest or weed control at 320 g/ha (PHBPU) | pest or weed control at 80 g/ha (SETVI [12]) | pest or weed control at 320 g/ha (SETVI [12]) | pest or weed control at 320 g/ha (VERPE) | pest or weed control at 320 g/ha (VIOTR) | further results
CCOC(=O)C(OCC)Oc1nn(-c2ccccc2F)c(-c2ccc(F)nc2)c1Br (racemic) [Example I-01, Ethyl (2RS)-{[4-bromo-1-(2-fluorophenyl)-5-(6-fluoropyridin-3-yl)-1H-pyrazol-3-yl]oxy}(ethoxy)acetate] | 0% | 90% | 100% | 100% | 100% | 90% | 90% | 100% | 90% | 100% | 90% | 90% | 90% | 90% | 90% | 90% | 90% | 90% | 90% | 90% | Pre-emergence effect at 80 g/ha against AMARE in % (AMARE [2]): 80%; Pre-emergence effect at 80 g/ha against LOLRI in % (LOLRI [4]; 80 g/ha): 90%; Pre-emergence effect at 80 g/ha against MATIN in % (MATIN [5]; 80 g/ha): 90%; Pre-emergence effect at 80 g/ha against POLCO in % (POLCO): 80%; pest or weed control at 80 g/ha (ABUTH; 80 g/ha): 80%; pest or weed control at 320 g/ha (ABUTH): 90%; pest or weed control at 80 g/ha (AMARE [8]; 80 g/ha): 80%; pest or weed control at 80 g/ha (ECHCG [9]): 90%; pest or weed control at 80 g/ha (MATIN [11]): 80%; pest or weed control at 80 g/ha (PHBPU): 90%; pest or weed control at 80 g/ha (VERPE): 80%; pest or weed control at 80 g/ha (VIOTR): 80%
COC(=O)C(OC)Oc1nn(-c2ccccc2F)c(-c2ccc(F)nc2)c1Br (racemic) [Example I-04, Methyl (2RS)-{[4-bromo-1-(2-fluorophenyl)-5-(6-fluoropyridin-3-yl)-1H-pyrazol-3-yl]oxy}(methoxy)acetate] | 0% | 90% | 100% | 100% | 100% | 90% | 90% | 100% | 90% | 90% | 90% | 90% | 80% | 80% | 80% | 80% | 80% | 80% | 90% | 80% | Pre-emergence effect at 80 g/ha against ALOMY in % (ALOMY [1]; 80 g/ha): 80%; Pre-emergence effect at 80 g/ha against AMARE in % (AMARE [2]): 80%; Pre-emergence effect at 80 g/ha against ECHCG in % (ECHCG [3]; 80 g/ha): 80%; Pre-emergence effect at 80 g/ha against POLCO in % (POLCO): 80%; Pre-emergence effect at 80 g/ha against SETVI in % (SETVI [6]; 80 g/ha): 80%; pest or weed control at 320 g/ha (ABUTH): 80%; pest or weed control at 80 g/ha (AVEFA): 80%; pest or weed control at 80 g/ha (ECHCG [9]): 80%; pest or weed control at 80 g/ha (LOLRI [10]): 80%; pest or weed control at 80 g/ha (MATIN [11]): 80%; pest or weed control at 80 g/ha (PHBPU): 80%; pest or weed control at 80 g/ha (VERPE): 90%; pest or weed control at 80 g/ha (VIOTR): 80%
COC(=O)C(OC)Oc1nn(-c2ncccc2F)c(-c2ccc(F)nc2)c1Br (stereo not drawn) [Example I-05] | 20% | 90% | 90% | 90% | 100% | 90% | 90% | 100% | 90% | 90% | 80% | 80% | 80% | 90% | 80% | 90% | 80% | 80% | 80% | 80% | pest or weed control at 80 g/ha (AVEFA): 80%; pest or weed control at 80 g/ha (LOLRI [10]): 80%
